Measured values reported in US20260224716A1, “PTH ANALOGS FOR THE TREATMENT OF HYPOPARATHYROIDISM” (priority 2020, published 2026).
*1 amine or outer side, *2 acyl side, *3 side chain or, on linkers, in order; H or OH if unused. Where a SMILES comes first, the peptide text is derived from it. Side-chain parts run from the residue outwards. [ ]: non-standard residue; d: D form. The star is where a group is joined. C18 diacid = O=C(O)CCCCCCCCCCCCCCCCC(=O)*; γGlu = O=C(O)[C@H](CCC(=O)[*:2])N[*:1]; AEEA = NCCOCCOCC(=O)O; Sar = CNCC(=O)O

Key:
[1] = Rate of model dipeptide cleavage from hexapeptide in PBS (HPLC, LC-MS); type: physicochemical; conditions: buffer
Description: The solution was incubated at 37° C.
The flow rate was 1 ml/min.

[2] = Pharmacokinetics of A8 PTH prodrugs in monkeys, single subcutaneous dose (Example 8); type: in vivo, cynomolgus monkeys; conditions: single SC dose 25 nmol/kg, FIGS. 7A, 7B
Description: The pharmacokinetic profile of PTH analogues following a single subcutaneous dose to cynomolgus monkeys and an evaluation of the pharmacodynamic response of serum calcium and phosphorus was investigated. A total of six monkey were used in this test 2 males and 4 females ranging in age from 2-4 years old at beginning of the study and having a weight of at least 2.5 kg.
Animals were assigned to groups as noted in the Table 6 below. Animals were dosed by subcutaneous injection. Dose administration was staggered. The Group 1
male was dosed once, and the remaining two Group 1 females and all Group 2 animals were dosed once, approximately four days later. First day of dosing was designated as Study Day (SD) 1 for each animal. The dose volume was 0.3 mL/kg. Individual dose volumes were calculated based on the animals' most recently recorded body weight. […]
Pharmacokinetic mean concentration-time data was analyzed using non-compartmental methods (Phoenix® WinNonlin® Version 7.0 or higher) based on the route of administration. The following parameters were calculated whenever possible and as data allows: Cmax, Tmax, and AUC. […]
Results from these pharmacokinetic (PK) studies are provided in FIGS. 7A and 7B wherein the concentration of the administered prodrug form and its activate drug form (produced after in vivo non-enzymatic cleavage of the dipeptide prodrug element) were measured over time.

## CC[C@H](C)[C@H](NC(=O)[C@H](CCC(=O)O)NC(=O)[C@H](CO)NC(=O)[C@@H](NC(=O)[C@H](CO)NC(=O)CN(C)C(=O)[C@H](N)CCCCNC(=O)CC[C@H](NC(=O)COCCOCCNC(=O)COCCOCCNC(=O)CC[C@H](NC(=O)CCCCCCCCCCCCCCCCC(=O)O)C(=O)O)C(=O)O)C(C)C)C(=O)N[C@@H](CCC(N)=O)C(=O)N[C@@H](CC(C)C)C(=O)N[C@@H](C)C(=O)N[C@@H](Cc1c[nH]cn1)C(=O)N[C@@H](CC(N)=O)C(=O)N[C@@H](CC(C)C)C(=O)NCC(=O)N[C@@H](CCCCN)C(=O)N[C@@H](Cc1c[nH]cn1)C(=O)N[C@@H](CC(C)C)C(=O)N[C@@H](CC(N)=O)C(=O)N[C@@H](CO)C(=O)N[C@@H](CCSC)C(=O)N[C@@H](CCC(=O)O)C(=O)N[C@@H](CCCNC(=N)N)C(=O)N[C@H](C(=O)N[C@@H](CCC(=O)O)C(=O)N[C@@H](Cc1c[nH]c2ccccc12)C(=O)N[C@@H](CC(C)C)C(=O)N[C@@H](CCCNC(=N)N)C(=O)N[C@@H](CCCCN)C(=O)N[C@@H](CCCCN)C(=O)N[C@@H](CC(C)C)C(=O)N[C@@H](CCC(N)=O)C(=O)N[C@@H](CC(=O)O)C(=O)N[C@H](C(=O)N[C@@H](Cc1c[nH]cn1)C(=O)N[C@@H](CCCCNC(=O)CC[C@H](NC(=O)COCCOCCNC(=O)COCCOCCNC(=O)CC[C@H](NC(=O)CCCCCCCCCCCCCCCCC(=O)O)C(=O)O)C(=O)O)C(=O)O)C(C)C)C(C)C [SEQ ID NO: 95] (H-[dK]([γGlu-AEEA-AEEA-γGlu-C18 diacid])[Sar]SVSEIQLAHNLGKHLNSMERVEWLRKKLQDVHK([γGlu-AEEA-AEEA-γGlu-C18 diacid])-OH)
[1]
  half-life at 1 mg/ml: > 20.8 days
[2]
  plasma concentration versus singly fatty acylated prodrug SEQ ID: 94: higher concentration that is sustained for a longer period
